Results on five molecules are retold here after US20030130169A1, “Methods of treating drug-resistant bacterial infections” (priority 2001, published 2003).

In test [1] the test system is RepA-LacZ (SLI-SLIII interaction of RepA mRNA), plasmid pMU1550. As to the kind of experiment: RepA-LacZ reporter gene assay. It is filed as cell-based. To be noted: E. coli JP3923 harboring pMU1550, various concentrations, OD600 ~0.6. Here is the method: Small molecules were tested for their ability to imitate the function of RNA I by binding to the RepA mRNA and disrupting the Stem Loop I-Stem Loop III (SLI-SLIII) loop-loop interaction, thus mimicking plasmid incompatibility. Aminoglycosides and their derivatives were selected for testing because of their ability to tightly bind RNA from a variety of sources, particularly regions of distorted RNA secondary structure, such as RNA loops or bulges.
To assess their ability to disrupt the SLI-SLIII interaction in vivo, small molecules were assessed using a RepA-LacZ reporter gene assay. To conduct the assay, the gene encoding β-galactosidase was fused to the RepA gene, incorporated into commercially available plasmid pMU1550. E. coli JP3923 harboring plasmid pMU1550 was grown in minimal media (MM)/Tm([…]) in the presence of various concentrations of the small molecules under evaluation. After reaching the appropriate optical density (˜OD600=0.6), Miller units of b-galactosidase were quantitated as per the standard protocol (see Miller, J. H, Experiments in Molecular Genetics, 1972, p352-355, Cold Spring Harbor Laboratory, Cold Spring Harbor, N.Y.). Any perturbation causing lower RepA production leads to a lowering of the β-galactosidase units upon quantitation A positive control utilizing a plasmid (pMU662) that overexpresses RNAII (containing the SLI-SLIII stretch) gave the expected high b-galactosidase signal. Each experiment was performed on at least three separate occasions.
In a second control, erythromycin A, a general translation inhibitor, was tested using the reporter gene assay.
These experiments gave the expected results.
A general note: A reporter such as luciferase makes a cellular process visible.

The subject of test [2] is plasmids differing in copy numbers, size and nature of replication. The settings on record: cited from earlier work.
A further test relates to SLIII. As to the kind of experiment: Direct binding to fluorescein-labeled RNA (fluorescence titration). To be noted: various apramycin concentrations. Here is the method:
(§1) The direct binding of apramycin to SLI and SLIII was then assessed in vitro using fluorescently-labeled RNAs.
(§2) For these experiments, RNA oligonucleotides were obtained from Dharmacon Research (Lafayette, Colo.), and were deprotected according to the manufacturer's protocol. The sequence of FI-SLI is FI.C.G.CCA.UAA.GCG.ACA.GCU.UGU.GGC. The sequence of FI-SLIII is FI.UAU.UUU.UCC.UCG.AAC.UUG.GCG.GAA.CGC.AGA.AAA.AUA. All fluorescence measurements were performed on an ISS PC1 spectrofluorometer with slitwidths and lamp current optimized for sufficient signal counts at the given RNA-fluorescein concentration. Deprotected RNA oligonucleotides were made up to 1 mM in 50 mM Tris-HCl, pH 7.3, and folded by heating to 90° C. for 3 min, then slowly cooling to rt. To assess the binding of apramycin to the fluorescently-labeled RNAs, […] of the folded RNA was transferred to a 4×10×48 mm fluorescence cuvette (Starna Cells) and allowed to equilibrate to 37° C. in the spectrofluorometer's sample chamber for 15 minutes. Apramycin was added in […] portions from a stock solution, and a minimum of 5 minutes was allotted for equilibration. Three fluorescence spectra were acquired at each apramycin concentration. The spectra were taken with a 490 nm excitation wavelength and emission intensity was measured from 510-540 nm at an interval of one nanometer. At each point along the spectrum, an average of 3 data points was taken to give an averaged intensity at that integral wavelength. In processing the spectra, the point at 523 nm was chosen as a representative wavelength to monitor change in intensity over a range of apramycin concentrations. The 523 nm data points from each of the three averaged spectra were averaged at each apramycin concentration to give a composite average of nine measurements at 523 nm at each apramycin concentration. All intensity measurements are reported uncorrected for dilutions, as volume change over the course of the experiment is minimal.

For another test, the target named is SLI. Described as above. As for the experimental part: as §1, §2
For test [3], the target named is SLI-SLIII loop-loop complex. The test can be described thus: In vitro SLI-SLIII loop-loop disruption assay (displacement of fluorescein-labeled SLIII from bead-bound SLI). It is filed as binding. The settings on record: biotinylated SLI on streptavidin agarose bead, fluorescein-labeled SLIII displaced; read-out: Kd for disrupting the SLI-SLIII interaction. As for the experimental part: To further investigate the mechanism by which apramycin causes plasmid elimination, the SLI-SLIII loop-loop interaction was reconstituted in vitro. SLI was biotinylated and bound to a streptavidin coated agarose bead. Fluorescein-labeled SLIII was added to form the loop-loop complex. This complex was then incubated with varous concentrations of apramycin and the amount of SLIII displaced by apramycin was assessed by quantitation of the fluorescence in solution. These experiments indicate that apramycin is disrupting the SLI-SLIII interaction with a Kd of 1 μM.

In test [4] the test system is IncB plasmid pMU2403 encoding β-lactamase. The test can be described thus: Assessment of plasmid elimination (master/replica plating). The class given is cell-based, E. coli strain JP4821. To be noted: 25 μg/mL apramycin. Here is the method:
The anti-plasmid effect of apramycin, paromomycin I and kanamycin B was assessed. In general, plasmid-containing E. coli resistant to ampicillin were cultured using growth media containing subinhibitory (sublethal) amounts of each of these compounds. The bacteria were allowed to reproduce for a defined number of generations, after which the bacteria were plated out onto agar plates containing the tested small molecules. Replicas were then made onto plates containing the tested small molecules and the antibiotic, ampicillin. Colonies that appeared on the master plate, but not the replicas had been rendered sensitive to ampicillin
In particular, E. coli strain JP4821 containing the commercially available IncB plasmid pMU2403, which encodes for β-lactamase, was grown in MM in the presence of 25 μg/mL apramycin for a defined number of generations. Typically, samples of the bacteria were plated out onto LB/Apra^25 plates after 10-12 generations, and replica plates were then made onto LB/Apra^25/Amp^100 plates. Percentage of plasmid lost was calculated by counting the number of colonies successfully replicated and dividing by the total number of colonies on the master plate; the entire plasmid loss assay was performed on two separate occasions. On average, greater than 200 master plate colonies were used for each of these evaluations. Evaluations of paromomycin I and kanamycin B were performed in an analogous fashion, with paromomycin I at 15 mg/mL, and kanamycin B at 10 mg/mL.
To confirm that antibiotic sensitivity was due to plasmid loss, plasmid preparations were performed to isolate plasmid from the non-replicating colonies on the master plate, and from control colonies. No plasmids were isolated from the non-replicating colonies, while plasmid was successfully isolated from the control colonies that did replicate.

Broadly, the Kd is a measure of binding affinity in units of concentration.

The structures appear in SMILES notation.

Consider `CC[C@H]1OC(=O)[C@H](C)[C@@H](O[C@H]2C[C@@](C)(OC)[C@@H](O)[C@H](C)O2)[C@H](C)[C@@H](O[C@@H]2O[C@H](C)C[C@H](N(C)C)[C@H]2O)[C@](C)(O)C[C@@H](C)C(=O)[C@H](C)[C@@H](O)[C@]1(C)O` [Erythromycin A, erythromycin A], for which the “reporter gene signal (Miller units of β-galactosidase)” value (from here on “reporter gene signal”) in test [1] is on record as “no effect”.

On to `N[C@@H]1[C@H]2CN(c3nc4c(cc3F)c(=O)c(C(=O)O)cn4-c3ccc(F)cc3F)C[C@@H]12` [Trovafloxacin], for which the plasmid curing effect entry in test [2] is “plasmid curing”.

For `CN[C@@H]1[C@@H](O[C@H]2O[C@H](CO)[C@@H](N)[C@H](O)[C@H]2O)OC2C[C@@H](N)[C@@H](O[C@H]3[C@H](O)[C@@H](O)[C@H](N)C[C@@H]3N)OC2[C@@H]1O` (stereo partly drawn) [apramycin], the “change in fluorescence of labeled SLIII” value in the test on SLIII is on record as “no significant change in fluorescence”. Moreover, the Kd on SLI (50 mM Tris-HCl pH 7.3, 37° C., read-out: Kd of apramycin-SLI interaction) was 200 nM; in test [3], 1000 nM. The “change in fluorescent signal of labeled SLI” value in the test with SLI (various apramycin concentrations) was “significant decrease”. Besides, the “reporter gene signal” value in test [1] is “dose dependent decrease”. Moreover, the figures for the plasmid elimination entry in test [4] (after 220 generations) and in test [4] (overall conclusion) were “virtually complete elimination” and “virtually complete elimination of plasmid”, respectively. For the same molecule, the “sensitization of bacteria to ampicillin” value in test [4] (replica plates LB/Apra25/Amp100) is given as “sensitizes the bacteria to ampicillin”.

As to `NC[C@H]1O[C@H](O[C@H]2[C@H](O)[C@@H](O[C@H]3O[C@H](CO)[C@@H](O)[C@H](N)[C@H]3O)[C@H](N)C[C@@H]2N)[C@H](N)[C@@H](O)[C@@H]1O` [kanamycin B], the “reporter gene signal” value in test [1] is listed as “dose dependent decrease”.

As for `NC[C@@H]1O[C@H](O[C@H]2[C@@H](O)[C@H](O[C@@H]3[C@@H](O)[C@H](N)C[C@H](N)[C@H]3O[C@H]3O[C@H](CO)[C@@H](O)[C@H](O)[C@H]3N)O[C@@H]2CO)[C@H](N)[C@@H](O)[C@@H]1O` [paromomycin I], the “reporter gene signal” value in test [1] is given as “dose dependent decrease”.
